How the values were obtained:
SARS-CoV-2 = conditions: in words; cited from earlier work
SARS-CoV-2 PLpro = SARS-CoV-2 PLpro (Severe acute respiratory syndrome coronavirus 2, UniProt P0DTD1); test: Papain-like protease; assay type: biochemical; conditions: read-out: Percent inhibition against PLpro, 100 µg/mL, mean ± SEM of 3 replicas
SARS-CoV-2 M^pro = SARS-CoV-2 M^pro (Severe acute respiratory syndrome coronavirus 2, UniProt P0DTD1); assay type: biochemical; conditions: read-out: IC50 against M^pro; dose-response 25-200 µg/mL
[1] = system: normal human fibroblast cells (HDF); test: Cell viability MTT assay; assay type: cell-based; conditions: in words

For `Cc1cccc(C)c1OCC(=O)N[C@@H](Cc1ccccc1)[C@@H](O)C[C@H](Cc1ccccc1)NC(=O)[C@H](C(C)C)N1CCCNC1=O` [lopinavir], the “outcome in clinical trial as anti-SARS-CoV-2 inhibitors” value (SARS-CoV-2) is listed as “failed in the clinical trial”.
For `COc1ccc(/C=C\C(=O)NC(=S)Nc2ccc(S(=O)(=O)NC(N)=O)cc2)cc1OC` [Compound 9], the inhibition at 100 µg/mL (SARS-CoV-2 PLpro) was ≤ 40%.
With `COc1cc(CC(C)NCc2cc(NC(=O)c3ccccn3)cc(C(=O)N(C)C)c2)ccc1O` (stereo not drawn) [Compound 12] the inhibition at 100 µg/mL (SARS-CoV-2 PLpro) was ≤ 40%.
For `O=C(CSc1nnc2c(n1)[nH]c1ccccc12)Nc1cccc(S(=O)(=O)N2CCOCC2)c1` [Compound 8], the inhibition at 100 µg/mL (SARS-CoV-2 PLpro) was ≤ 40%.
In the case of `COc1cc(C(NC2=NC(=O)C(CC(=O)Nc3ccc(C(=O)O)cc3)S2)c2c(O)[nH]c(=O)[nH]c2=O)ccc1O` (stereo not drawn) [Compound 7], the IC50 (SARS-CoV-2 M^pro) is reported as 450 nM and the “toxicity on mammalian cells” value [1] is reported as “no toxicity”.
For `N=C(N/N=C/c1ccccc1O)c1nonc1NCNc1nonc1C(=N)N/N=C/c1ccccc1O` [Compound 13], the “toxicity on mammalian cells” value [1] was “no toxicity”.
For `CCOC(=O)C(Cc1c[nH]c2ccccc12)NC(=O)CCC(=O)Nc1ccc(S(N)(=O)=O)cc1` (stereo not drawn) [Compound 2], the inhibition at 100 µg/mL (SARS-CoV-2 PLpro) was ≤ 40%.
In the case of `CC(C)c1nc(CN(C)C(=O)N[C@H](C(=O)N[C@@H](Cc2ccccc2)C[C@H](O)[C@H](Cc2ccccc2)NC(=O)OCc2cncs2)C(C)C)cs1` [ritonavir], the “outcome in clinical trial as anti-SARS-CoV-2 inhibitors” value (SARS-CoV-2) is listed as “failed in the clinical trial”.

From publication PMC8107043 (Bioorganic & Medicinal Chemistry Letters, 2021)
